Laboratory results as given in US20180177778A1, “Methods for Treating HCV” (priority 2015, published 2018).

Tests used:
[1] = Effect of food on bioavailability of co-formulated tablets, healthy Japanese subjects (Example 20); type: in vivo, human; conditions: for Tmax: both sexes, mean Tmax
Text: Japanese male and female volunteers 20 to 55 years of age in general good health with a body mass index ≥18.5 and <25 kg/m^2 were eligible to enroll. Subjects who had positive test results for hepatitis A, B, or C, or for HIV infection, and subjects who were using known inhibitors or inducers of CYP3A isozyme or organic anion transporting polypeptide 1B1 (OATP1B1) inhibitors were excluded from participation. Subjects were not to have consumed alcohol, grapefruit, star fruit, or Seville oranges within 72 hours, or to have used nicotine-containing products within 6 months before study drug administration.
This was a 2-sequence 2-period crossover study. A single dose of two ombitasvir/paritaprevir/ritonavir 12.5/75/50 mg coformulated tablets (total dose of 25/150/100 mg) was administered in the morning on Study Day 1 of each period as follows:
PK parameters for ombitasvir, paritaprevir, and ritonavir were estimated by noncompartmental methods using Phoenix WinNonlin, version 6.3 (Pharsight, A Certara® Company, St. Louis, Mo.) including maximum plasma concentration (Cmax), time to Cmax (Tmax), area under the plasma concentration-time curve (AUC), and terminal-phase elimination half-life (t1/2). The effect of food on the bioavailability of ombitasvir, paritaprevir, and ritonavir was assessed using a repeated measures analysis of natural logarithms of Cmax and AUC values. Point estimates of central value ratios and their 90% confidence intervals (CIs) for Cmax and AUC were calculated to quantify the magnitude of food effect. Statistical analyses were conducted using SAS, version 9.2 (SAS Institute, Inc., Cary, N.C.).

[2] = Population pharmacokinetics in HCV GT1 subjects with CKD Stage 4 or 5 (Example 17); type: in vivo, human; conditions: vs subjects without kidney disease
Procedure: Pharmacokinetic data from a Phase 2 study (N=38) in subjects with normal or mild renal impairment (subjects “without kidney disease”) were combined with preliminary data from a Phase 3b study in subjects with CKD Stage 4 (N=5) or Stage 5 on hemodialysis (N=14). In both studies subjects received OBV/PTV/r 25/150/100 mg QD and DSV 250 mg BID±RBV for 12 weeks. Pharmacokinetic parameters and steady-state exposures of the 3-DAA regimen were estimated using population pharmacokinetic models.

[3] = human, in vivo
Procedure: All subjects received ombitasvir/paritaprevir/ritonavir 25/150/100 mg QD and dasabuvir 250 mg BID±weight based RBV. DAAs (OBV, PTV, or DSV) and RTV AUC values were available from 2093 subjects and RBV AUC values were available from 1584 subjects. The dataset included subjects with normal renal function (NF) (CrCl ≥90 mL/min, n=1495), mild renal impairment (RI) (CrCL 60-89 mL/min, n=576) and moderate RI (CrCL 30-59 mL/min, n=22). […] CrCL was retained in the models, regardless of its statistical significance, to determine the effect, if any, on the AUC values.

[4] = in vivo; cited from earlier work

| Compound | Tmax ([1]; human, in vivo) [h] | increase of mean AUC ([1]; both, human, in vivo) [%] | mean Tmax ([1]; both, human, in vivo) [h] | exposures lower in CKD Stage 5 [2] | exposures higher in CKD Stage 4 subjects [2] | other results |
| --- | --- | --- | --- | --- | --- | --- |
| Cc1cnc(C(=O)N[C@H]2CCCCC/C=C\[C@@H]3C[C@@]3(C(=O)NS(=O)(=O)C3CC3)NC(=O)[C@@H]3C[C@@H](Oc4nc5ccccc5c5ccccc45)CN3C2=O)cn1 [Compound 1, (2R,6S,13aS,14aR,16aS,Z)—N-(cyclopropylsulfonyl)-6-(5-methylpyrazine-2-carboxamido)-5,16-dioxo-2-(phenanthridin-6-yloxy)-1,2,3,5,6,7,8,9,10,11,13a,14,14a,15,16,16a-hexadecahydrocyclopropa[e]pyrrolo[1,2-a][1,4]diazacyclopentadecine-14a-carboxamide] | 4.2 | 228 | 5.2 | – | – | – |
| COc1c(-c2ccc3cc(NS(C)(=O)=O)ccc3c2)cc(-n2ccc(=O)[nH]c2=O)cc1C(C)(C)C [Compound 3, N-(6-(3-tert-butyl-5-(2,4-dioxo-3,4-dihydropyrimidin-1(2H)-yl)-2-methoxyphenyl)naphthalen-2-yl)methanesulfonamide] | – | – | – | ~37% | – | – |
| NC(=O)c1ncn([C@@H]2O[C@H](CO)[C@@H](O)[C@H]2O)n1 [Ribavirin, ribavirin] | – | – | – | – | – | AUC values higher in mild/moderate RI compared to NF [3]: up to 17%; absolute bioavailability [4]: approximately 50% |
| CC(C)c1nc(CN(C)C(=O)N[C@H](C(=O)N[C@@H](Cc2ccccc2)C[C@H](O)[C@H](Cc2ccccc2)NC(=O)OCc2cncs2)C(C)C)cs1 [ritonavir, reference compound] | 3.4 | 34 | 4.9 | about 33% | ~200% | – |
| dimethyl (2S,2′S)-1,1′-((2S,2′S)-2,2′-(4,4′-((2S,5S)-1-(4-tert-butylphenyl)pyrrolidine-2,5,diyl)bis(4,1-phenylene))bis(azanediyl)bis(oxomethylene)bis(pyrrolidine-2,1-diyl)bis(3-methyl-1-oxobutane-2,1-diyl)dicarbamate [Compound 2] | – | – | – | – | about 80% | mean Tmax ([1]; fasting conditions, single dose 25/150/100 mg): 4.4 h; increase of mean AUC ([1]; high fat meal relative to fasting, Japanese subjects): 73%; mean Tmax ([1]; with a high fat meal, single dose 25/150/100 mg): 5.3 h |
